In US9969742B2, “Imidazotriazinone compounds” (Ironwood Pharmaceuticals, Inc., priority 2012, dated 2018):
pIC50: −log10 of the molar value. Where two headings read alike, the source gives them in different places.

Columns and labels:
Type in all cases: biochemical
PDE1A = molecular target: T1, PDE1A (Homo sapiens, UniProt P54750); experiment: Phosphodiesterase enzyme screening assay, PDE1A
T1 construct: purchased Reaction Biology Corporation, Malvern, Pa
Summary of the method: (§1)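 Reaction started by adding substrate (4.0 μM cGMP) to recombinant human enzyme in HEPES pH 7.5 buffer with MgCl2, DTT and Brij; 1 h at room temperature; quenched with EDTA-containing stop buffer; product and substrate resolved electrophoretically and quantified by fluorescence relative to uninhibited controls.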

PDE1B = molecular target: T2, PDE1B (Homo sapiens, UniProt Q01064); experiment: Phosphodiesterase enzyme screening assay, PDE1B
T2 construct: purchased Reaction Biology Corporation, Malvern, Pa
Summary of the method: as §1

PDE9A2 = molecular target: T3, PDE9A2 (Homo sapiens, UniProt O76083); experiment: Phosphodiesterase enzyme screening assay, PDE9A2
T3 construct: purchased Reaction Biology Corporation, Malvern, Pa
Summary of the method: as §1

[1] = ratio of IC50 values PDE1A / PDE9A2, value greater than 1 = greater selectivity for PDE9A2
[2] = ratio of IC50 values PDE1B / PDE9A2, value greater than 1 = greater selectivity for PDE9A2
[3] = 4.0 μM cGMP substrate, 1 hour at R.T., read-out: Band (PDE9A2 IC50)
[4] = Table 1, ratio of IC50 values, value greater than 1 indicates greater selectivity for PDE9A2
[5] = Table 1, 10 concentrations, 4.0 μM cGMP substrate, 1 hour at R.T., read-out: Band (PDE9A2 IC50)
[6] = Table 2, ratio of IC50 values, value greater than 1 indicates greater selectivity for PDE9A2
[7] = ratio of IC50 values, PDE1A versus PDE9A2, value greater than 1 indicates greater selectivity for PDE9A2
[8] = ratio of IC50 values, PDE1B versus PDE9A2, value greater than 1 indicates greater selectivity for PDE9A2
[9] = ratio of IC50 values PDE1A vs PDE9A2, value greater than 1 indicates greater selectivity for PDE9A2
[10] = ratio of IC50 values PDE1B vs PDE9A2, value greater than 1 indicates greater selectivity for PDE9A2
[11] = IC50 band, 4.0 μM cGMP substrate, 1 hour at R.T.

T1 sequence (P54750 whole entry): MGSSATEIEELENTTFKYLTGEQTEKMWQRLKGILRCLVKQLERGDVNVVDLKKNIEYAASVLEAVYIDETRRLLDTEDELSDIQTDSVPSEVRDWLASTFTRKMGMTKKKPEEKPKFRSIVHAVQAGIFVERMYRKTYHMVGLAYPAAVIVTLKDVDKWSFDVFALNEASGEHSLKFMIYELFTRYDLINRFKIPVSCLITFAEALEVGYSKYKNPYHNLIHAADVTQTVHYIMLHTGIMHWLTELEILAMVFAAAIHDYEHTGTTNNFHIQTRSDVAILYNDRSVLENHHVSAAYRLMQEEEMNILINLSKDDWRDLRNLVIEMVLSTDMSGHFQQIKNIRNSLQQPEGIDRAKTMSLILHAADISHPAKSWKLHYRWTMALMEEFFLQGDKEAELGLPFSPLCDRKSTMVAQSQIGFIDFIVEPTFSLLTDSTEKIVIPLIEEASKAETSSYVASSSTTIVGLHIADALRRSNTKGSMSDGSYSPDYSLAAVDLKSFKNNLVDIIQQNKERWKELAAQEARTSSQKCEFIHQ
T2 sequence (Q01064 whole entry): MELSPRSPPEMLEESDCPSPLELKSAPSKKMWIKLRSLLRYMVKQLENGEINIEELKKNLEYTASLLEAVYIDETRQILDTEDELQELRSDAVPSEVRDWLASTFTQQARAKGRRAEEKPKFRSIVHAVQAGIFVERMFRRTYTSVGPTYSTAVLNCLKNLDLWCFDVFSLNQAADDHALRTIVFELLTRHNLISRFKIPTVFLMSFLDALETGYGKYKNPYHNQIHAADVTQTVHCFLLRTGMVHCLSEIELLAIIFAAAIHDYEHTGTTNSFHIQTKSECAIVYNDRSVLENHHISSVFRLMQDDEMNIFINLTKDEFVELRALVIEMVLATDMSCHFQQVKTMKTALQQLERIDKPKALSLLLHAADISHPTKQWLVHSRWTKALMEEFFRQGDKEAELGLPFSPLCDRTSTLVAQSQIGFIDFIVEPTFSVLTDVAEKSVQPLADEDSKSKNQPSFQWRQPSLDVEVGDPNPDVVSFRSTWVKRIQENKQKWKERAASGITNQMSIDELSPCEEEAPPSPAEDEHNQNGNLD
T3 sequence (O76083 1-533 isoform O76083-2): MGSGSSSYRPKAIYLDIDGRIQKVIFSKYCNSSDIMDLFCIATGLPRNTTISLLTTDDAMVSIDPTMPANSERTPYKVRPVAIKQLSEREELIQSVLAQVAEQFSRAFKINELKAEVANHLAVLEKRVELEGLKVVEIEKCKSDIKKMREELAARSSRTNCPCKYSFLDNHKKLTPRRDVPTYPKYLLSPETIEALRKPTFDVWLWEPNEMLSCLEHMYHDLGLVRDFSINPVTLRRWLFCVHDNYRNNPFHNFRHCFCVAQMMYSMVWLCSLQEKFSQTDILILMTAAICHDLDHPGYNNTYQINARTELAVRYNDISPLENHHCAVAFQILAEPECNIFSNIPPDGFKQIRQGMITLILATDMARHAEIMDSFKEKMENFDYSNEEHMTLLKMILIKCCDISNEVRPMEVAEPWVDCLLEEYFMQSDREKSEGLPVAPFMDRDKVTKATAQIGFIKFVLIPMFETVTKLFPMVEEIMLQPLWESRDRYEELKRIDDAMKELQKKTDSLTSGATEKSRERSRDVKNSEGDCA

CC1CN(Cc2cccs2)CC1c1nn2c(C3CCOCC3)ncc2c(=O)[nH]1 (single isomer, unassigned; (+)) [(+)-2-((3,4-trans)-4-methyl-1-(thiophen-2-ylmethyl)pyrrolidin-3-yl)-7-(tetrahydro-2H-pyran-4-yl)imidazo[5,1-f][1,2,4]triazin-4(3H)-one]
PDE1A selectivity (versus PDE9A2) (PDE1A; [1]): 91 | PDE1B selectivity (versus PDE9A2) (PDE1B; [2]): 140 | pIC50 (PDE9A2; [3]): > 6.00

CC1CN(Cc2ccsc2)CC1c1nn2c(C3CCOCC3)ncc2c(=O)[nH]1 (single isomer, unassigned; (+)) [(+)-2-((3,4-trans)-4-methyl-1-(thiophen-3-ylmethyl)pyrrolidin-3-yl)-7-(tetrahydro-2H-pyran-4-yl)imidazo[5,1-f][1,2,4]triazin-4(3H)-one]
PDE1A selectivity (versus PDE9A2) (PDE1A; ratio of IC50 values, PDE1A versus PDE9A2, value greater than 1 = greater selectivity for PDE9A2): 176 | PDE1B selectivity (versus PDE9A2) (PDE1B; ratio of IC50 values, PDE1B versus PDE9A2, value greater than 1 = greater selectivity for PDE9A2): 209 | pIC50 (PDE9A2; Table 3, 4.0 μM cGMP substrate, 1 hour at R.T., read-out: Band (PDE9A2 IC50)): > 6.00

CC1CN(CCc2ccccc2)CC1c1nn2c(C3CCOCC3)ncc2c(=O)[nH]1 (single isomer, unassigned; (+)) [(+)-2-((3,4-trans)-4-methyl-1-phenethylpyrrolidin-3-yl)-7-(tetrahydro-2H-pyran-4-yl)imidazo[5,1-f][1,2,4]triazin-4(3H)-one]
PDE1A selectivity (versus PDE9A2) (PDE1A; [4]): 28 | PDE1B selectivity (versus PDE9A2) (PDE1B; [4]): 23 | pIC50 (PDE9A2; [5]): > 6.00

CC1CN(Cc2ccccc2C#N)CC1c1nn2c(C3CCOCC3)ncc2c(=O)[nH]1 (single isomer, unassigned; (+)) [(+)-2-(((3,4-trans)-3-methyl-4-(4-oxo-7-(tetrahydro-2H-pyran-4-yl)-3,4-dihydroimidazo[5,1-f][1,2,4]triazin-2-yl)pyrrolidin-1-yl)methyl)benzonitrile]
PDE1A selectivity (versus PDE9A2) (PDE1A; [4]): 241 | PDE1B selectivity (versus PDE9A2) (PDE1B; [4]): 220 | pIC50 (PDE9A2; [5]): > 6.00

CC1CN(Cc2ncc(C#N)cn2)CC1c1nn2c(C3CCOCC3)ncc2c(=O)[nH]1 (single isomer, unassigned; (+)) [(+)-2-(((3,4-trans)-3-methyl-4-(4-oxo-7-(tetrahydro-2H-pyran-4-yl)-3,4-dihydroimidazo[5,1-f][1,2,4]triazin-2-yl)pyrrolidin-1-yl)methyl)pyrimidine-5-carbonitrile]
PDE1A selectivity (versus PDE9A2) (PDE1A; [6]): 22 | PDE1B selectivity (versus PDE9A2) (PDE1B; [6]): 65 | pIC50 (PDE9A2; Table 2, 10 concentrations, 4.0 μM cGMP substrate, 1 hour at R.T., read-out: Band (PDE9A2 IC50)): > 6.00

CC1CN(Cc2ccc(F)c(C#N)c2)CC1c1nn2c(C3CCOCC3)ncc2c(=O)[nH]1 (single isomer, unassigned; (+)) [(+)-2-fluoro-5-(((3,4-trans)-3-methyl-4-(4-oxo-7-(tetrahydro-2H-pyran-4-yl)-3,4-dihydroimidazo[5,1-f][1,2,4]triazin-2-yl)pyrrolidin-1-yl)methyl)benzonitrile]
PDE1A selectivity (versus PDE9A2) (PDE1A; [1]): 61 | PDE1B selectivity (versus PDE9A2) (PDE1B; [2]): 58 | pIC50 (PDE9A2; [3]): > 6.00

CC1CN(Cc2cccc(C#N)c2)CC1c1nn2c(C3CCOCC3)ncc2c(=O)[nH]1 (single isomer, unassigned; (+)) [(+)-3-(((3,4-trans)-3-methyl-4-(4-oxo-7-(tetrahydro-2H-pyran-4-yl)-3,4-dihydroimidazo[5,1-f][1,2,4]triazin-2-yl)pyrrolidin-1-yl)methyl)benzonitrile]
PDE1A selectivity (versus PDE9A2) (PDE1A; [4]): 942 | PDE1B selectivity (versus PDE9A2) (PDE1B; [4]): 343 | pIC50 (PDE9A2; [5]): > 6.00

CC1CN(Cc2ncccn2)CC1c1nn2c(-c3ccccc3F)ncc2c(=O)[nH]1 (single isomer, unassigned; (+)) [(+)-7-(2-fluorophenyl)-2-((3,4-trans)-4-methyl-1-(pyrimidin-2-ylmethyl)pyrrolidin-3-yl)imidazo[5,1-f][1,2,4]triazin-4(3H)-one]
PDE1A selectivity (versus PDE9A2) (PDE1A; ratio of IC50 values PDE1A / PDE9A2, value greater than 1 indicates greater selectivity for PDE9A2): 19 | PDE1B selectivity (versus PDE9A2) (PDE1B; ratio of IC50 values PDE1B / PDE9A2, value greater than 1 indicates greater selectivity for PDE9A2): 39 | pIC50 (PDE9A2; [3]): > 6.00

CC1CN(Cc2ccccn2)CC1c1nn2c(-c3cccc(F)c3)ncc2c(=O)[nH]1 (single isomer, unassigned; (+)) [(+)-7-(3-fluorophenyl)-2-((3,4-trans)-4-methyl-1-(pyridin-2-ylmethyl)pyrrolidin-3-yl)imidazo[5,1-f][1,2,4]triazin-4(3H)-one]
PDE1A selectivity (versus PDE9A2) (PDE1A; [7]): 190 | PDE1B selectivity (versus PDE9A2) (PDE1B; [8]): 236 | pIC50 (PDE9A2; read-out: Band (PDE9A2 IC50)): > 6.00

CC1CN(Cc2cccnc2)CC1c1nn2c(-c3cccc(F)c3)ncc2c(=O)[nH]1 (single isomer, unassigned; (+)) [(+)-7-(3-fluorophenyl)-2-((3,4-trans)-4-methyl-1-(pyridin-3-ylmethyl)pyrrolidin-3-yl)imidazo[5,1-f][1,2,4]triazin-4(3H)-one]
PDE1A selectivity (versus PDE9A2) (PDE1A; [7]): 15 | PDE1B selectivity (versus PDE9A2) (PDE1B; [8]): 37 | pIC50 (PDE9A2; read-out: Band (PDE9A2 IC50)): > 6.00

CC1CN(Cc2cn3ccccc3n2)CC1c1nn2c(C3CCC(F)(F)CC3)ncc2c(=O)[nH]1 (single isomer, unassigned; (+)) [(+)-7-(4,4-difluorocyclohexyl)-2-((3,4-trans)-1-(imidazo[1,2-a]pyridin-2-ylmethyl)-4-methylpyrrolidin-3-yl)imidazo[5,1-f][1,2,4]triazin-4(3H)-one]
PDE1A selectivity (versus PDE9A2) (PDE1A; [9]): 405 | PDE1B selectivity (versus PDE9A2) (PDE1B; [10]): 1659 | pIC50 (PDE9A2; [11]): > 6.00

CC1CN(Cc2cnccn2)CC1c1nn2c(C3CCC(F)(F)CC3)ncc2c(=O)[nH]1 (single isomer, unassigned; (+)) [(+)-7-(4,4-difluorocyclohexyl)-2-((3,4-trans)-4-methyl-1-(pyrazin-2-ylmethyl)pyrrolidin-3-yl)imidazo[5,1-f][1,2,4]triazin-4(3H)-one]
PDE1A selectivity (versus PDE9A2) (PDE1A; [9]): 233 | PDE1B selectivity (versus PDE9A2) (PDE1B; [10]): 575 | pIC50 (PDE9A2; [11]): > 6.00

CC1CN(Cc2ccccn2)CC1c1nn2c(C3CCC(F)(F)CC3)ncc2c(=O)[nH]1 (single isomer, unassigned; (+)) [(+)-7-(4,4-difluorocyclohexyl)-2-((3,4-trans)-4-methyl-1-(pyridin-2-ylmethyl)pyrrolidin-3-yl)imidazo[5,1-f][1,2,4]triazin-4(3H)-one]
PDE1A selectivity (versus PDE9A2) (PDE1A; [9]): 167 | PDE1B selectivity (versus PDE9A2) (PDE1B; [10]): 362 | pIC50 (PDE9A2; [11]): > 6.00

CC1CN(Cc2cccnc2)CC1c1nn2c(C3CCC(F)(F)CC3)ncc2c(=O)[nH]1 (single isomer, unassigned; (+)) [(+)-7-(4,4-difluorocyclohexyl)-2-((3,4-trans)-4-methyl-1-(pyridin-3-ylmethyl)pyrrolidin-3-yl)imidazo[5,1-f][1,2,4]triazin-4(3H)-one]
PDE1A selectivity (versus PDE9A2) (PDE1A; [9]): 181 | PDE1B selectivity (versus PDE9A2) (PDE1B; [10]): 409 | pIC50 (PDE9A2; [11]): > 6.00

Cc1cc(F)c(F)cc1-c1ncc2c(=O)[nH]c(C3CN(Cc4ccc(F)cc4)CC3C)nn12 (single isomer, unassigned; (+)) [(+)-7-(4,5-difluoro-2-methylphenyl)-2-((3,4-trans)-1-(4-fluorobenzyl)-4-methylpyrrolidin-3-yl)imidazo[5,1-f][1,2,4]triazin-4(3H)-one]
PDE1A selectivity (versus PDE9A2) (PDE1A; [7]): 232 | PDE1B selectivity (versus PDE9A2) (PDE1B; [8]): 179 | pIC50 (PDE9A2; read-out: Band (PDE9A2 IC50)): > 6.00

Cc1cc(F)c(F)cc1-c1ncc2c(=O)[nH]c(C3CN(Cc4cn5ccccc5n4)CC3C)nn12 (single isomer, unassigned; (+)) [(+)-7-(4,5-difluoro-2-methylphenyl)-2-((3,4-trans)-1-(imidazo[1,2-a]pyridin-2-ylmethyl)-4-methylpyrrolidin-3-yl)imidazo[5,1-f][1,2,4]triazin-4(3H)-one]
PDE1A selectivity (versus PDE9A2) (PDE1A; [7]): 2510 | PDE1B selectivity (versus PDE9A2) (PDE1B; [8]): 9350 | pIC50 (PDE9A2; read-out: Band (PDE9A2 IC50)): > 6.00

Cc1cc(F)c(F)cc1-c1ncc2c(=O)[nH]c(C3CN(Cc4ncccn4)CC3C)nn12 (single isomer, unassigned; (+)) [(+)-7-(4,5-difluoro-2-methylphenyl)-2-((3,4-trans)-4-methyl-1-(pyrimidin-2-ylmethyl)pyrrolidin-3-yl)imidazo[5,1-f][1,2,4]triazin-4(3H)-one]
PDE1A selectivity (versus PDE9A2) (PDE1A; [7]): 44 | PDE1B selectivity (versus PDE9A2) (PDE1B; [8]): 85 | pIC50 (PDE9A2; read-out: Band (PDE9A2 IC50)): > 6.00

Cc1cc(F)ccc1-c1ncc2c(=O)[nH]c(C3CN(Cc4ccc(F)cc4)CC3C)nn12 (single isomer, unassigned; (+)) [(+)-7-(4-fluoro-2-methylphenyl)-2-((3,4-trans)-1-(4-fluorobenzyl)-4-methylpyrrolidin-3-yl)imidazo[5,1-f][1,2,4]triazin-4(3H)-one]
PDE1A selectivity (versus PDE9A2) (PDE1A; [9]): 345 | PDE1B selectivity (versus PDE9A2) (PDE1B; [10]): 493 | pIC50 (PDE9A2; [11]): > 6.00

Cc1cc(F)ccc1-c1ncc2c(=O)[nH]c(C3CN(Cc4cn5ccccc5n4)CC3C)nn12 (single isomer, unassigned; (+)) [(+)-7-(4-fluoro-2-methylphenyl)-2-((3,4-trans)-1-(imidazo[1,2-a]pyridin-2-ylmethyl)-4-methylpyrrolidin-3-yl)imidazo[5,1-f][1,2,4]triazin-4(3H)-one]
PDE1A selectivity (versus PDE9A2) (PDE1A; [9]): 339 | PDE1B selectivity (versus PDE9A2) (PDE1B; [10]): 792 | pIC50 (PDE9A2; [11]): > 6.00
